Laboratory results taken from patent US12295936B2, “Immunomodulating urea azalides” (Zoetis Services LLC, priority 2020, dated 2025).
Read-outs that look alike come from different tables or passages of the source.

Experiments:
[1] = tested on: IL-6; experiment: LPS-stimulated whole bovine blood assay, MSD cytokine detection; assay type: cell-based; conditions: Bos taurus, read-out: IL-6 (IC50 μM)
Description: In order to correlate RNA sequencing data to cytokine changes the whole blood assay was utilized. […] The enhancement result represents an overall stimulation of cytokine levels due to cellular stress or potential toxicity with increasing concentrations of the compound, representing a typical bell shape response curve for immunomodulatory activity.

[2] = tested on: IL-1β; experiment: as above; assay type: cell-based; conditions: overstimulation of IL-1β, LPS-stimulated bovine whole blood
[3] = tested on: BRD pathogens, M. haemolytica and P. multocida; experiment: MIC screening panel of BRD pathogens (antibacterial / non-antibacterial)
[4] = tested on: TNF-α; experiment: LPS-stimulated whole bovine blood assay, MSD cytokine detection; assay type: cell-based; conditions: Bos taurus, read-out: TNF-α (IC50 μM)
[5] = LPS-stimulated bovine whole blood
[6] = read-out: antibacterial / non-antibacterial (MIC for the BRD pathogens)

CC[C@H]1OC(=O)[C@H](C)[C@@H](O[C@H]2C[C@@](C)(OC)[C@](O)(CN3CCCCC3)[C@H](C)O2)[C@H](C)[C@@H](O[C@@H]2O[C@H](C)C[C@H](N(C)C(=O)N(C)c3ccccc3)[C@H]2O)[C@](C)(O)C[C@@H](C)CN[C@H](C)[C@@H](O)[C@]1(C)O [Example J-18, 1-((2S,3R,4S,6R)-2-(((2R,3S,4R,5R,8R,10R,11R,12S,13S,14R)-2-ethyl-3,4,10-trihydroxy-13-(((2R,4R,5S,6S)-5-hydroxy-4-methoxy-4,6-dimethyl-5-(piperidin-1-ylmethyl)tetrahydro-2H-pyran-2-yl)oxy)-3,5,8,10,12,14-hexamethyl-15-oxo-1-oxa-6-azacyclopentadecan-11-yl)oxy)-3-hydroxy-6-methyltetrahydro-2H-pyran-4-yl)-1,3-dimethyl-3-phenylurea]
IC50 [1]: 17 µM
IL-1β OS of LPS [2]: >250 µM
MIC ([3]; read-out: MIC ≤64 μg/mL for at least one of the bacterial strains (flag * at Ex #)): < 64 µg/mL
IC50 [4]: 16 µM

CC[C@H]1OC(=O)[C@H](C)[C@@H](O[C@H]2C[C@@](C)(OC)[C@](O)(CN=[N+]=[N-])[C@H](C)O2)[C@H](C)[C@@H](O[C@@H]2O[C@H](C)C[C@H](N(C)C(=O)N(C)c3ccccc3)[C@H]2O)[C@](C)(O)C[C@@H](C)CN[C@H](C)[C@@H](O)[C@]1(C)O [Example F-2, 1-((2S,3R,4S,6R)-2-(((2R,3S,4R,5R,8R,10R,11R,12S,13S,14R)-13-(((2R,4R,5S,6S)-5-(azidomethyl)-5-hydroxy-4-methoxy-4,6-dimethyltetrahydro-2H-pyran-2-yl)oxy)-2-ethyl-3,4,10-trihydroxy-3,5,8,10,12,14-hexamethyl-15-oxo-1-oxa-6-azacyclopentadecan-11-yl)oxy)-3-hydroxy-6-methyltetrahydro-2H-pyran-4-yl)-1,3-dimethyl-3-phenylurea]
IC50 [1, 5]: 30 µM
IL-1β OS of LPS [2]: 40 µM
MIC [3, 6]: > 64 µg/mL
IC50 [4, 5]: 11 µM

CC[C@H]1OC(=O)[C@H](C)[C@@H](O[C@H]2C[C@@](C)(OC)[C@](O)(CNCCCn3ccnc3)[C@H](C)O2)[C@H](C)[C@@H](O[C@@H]2O[C@H](C)C[C@H](N(C)C(=O)N(C)c3ccccc3)[C@H]2O)[C@](C)(O)C[C@@H](C)CN[C@H](C)[C@@H](O)[C@]1(C)O [Example H-25, 1-((2S,3R,4S,6R)-2-(((2R,3S,4R,5R,8R,10R,11R,12S,13S,14R)-13-(((2R,4R,5S,6S)-5-(((3-(1H-imidazol-1-yl)propyl)amino)methyl)-5-hydroxy-4-methoxy-4,6-dimethyltetrahydro-2H-pyran-2-yl)oxy)-2-ethyl-3,4,10-trihydroxy-3,5,8,10,12,14-hexamethyl-15-oxo-1-oxa-6-azacyclopentadecan-11-yl)oxy)-3-hydroxy-6-methyltetrahydro-2H-pyran-4-yl)-1,3-dimethyl-3-phenylurea]
IC50 [1, 5]: 22 µM
IL-1β OS of LPS [2]: 16 µM
MIC [3, 6]: > 64 µg/mL
IC50 [4, 5]: 19 µM

CC[C@H]1OC(=O)[C@H](C)[C@@H](O[C@H]2C[C@@](C)(OC)[C@](O)(Cn3ccnc3)[C@H](C)O2)[C@H](C)[C@@H](O[C@@H]2O[C@H](C)C[C@H](N(C)C(=O)N(C)c3ccccc3)[C@H]2O)[C@](C)(O)C[C@@H](C)CN[C@H](C)[C@@H](O)[C@]1(C)O [Example J-24, 1-((2S,3R,4S,6R)-2-(((2R,3S,4R,5R,8R,10R,11R,12S,13S,14R)-13-(((2R,4R,5S,6S)-5-((1H-imidazol-1-yl)methyl)-5-hydroxy-4-methoxy-4,6-dimethyltetrahydro-2H-pyran-2-yl)oxy)-2-ethyl-3,4,10-trihydroxy-3,5,8,10,12,14-hexamethyl-15-oxo-1-oxa-6-azacyclopentadecan-11-yl)oxy)-3-hydroxy-6-methyltetrahydro-2H-pyran-4-yl)-1,3-dimethyl-3-phenylurea]
IC50 [1, 5]: 99 µM
IL-1β OS of LPS [2]: 100 µM
MIC [3, 6]: > 64 µg/mL
IC50 [4, 5]: 31 µM

CC[C@H]1OC(=O)[C@H](C)[C@@H](O[C@H]2C[C@@](C)(OC)[C@](O)(CN(C)C3CCC3)[C@H](C)O2)[C@H](C)[C@@H](O[C@@H]2O[C@H](C)C[C@H](N(C)C(=O)N(C)c3ccccc3)[C@H]2O)[C@](C)(O)C[C@@H](C)CN[C@H](C)[C@@H](O)[C@]1(C)O [Example H-37, 1-((2S,3R,4S,6R)-2-(((2R,3S,4R,5R,8R,10R,11R,12S,13S,14R)-13-(((2R,4R,5S,6S)-5-((cyclobutyl(methyl)amino)methyl)-5-hydroxy-4-methoxy-4,6-dimethyltetrahydro-2H-pyran-2-yl)oxy)-2-ethyl-3,4,10-trihydroxy-3,5,8,10,12,14-hexamethyl-15-oxo-1-oxa-6-azacyclopentadecan-11-yl)oxy)-3-hydroxy-6-methyltetrahydro-2H-pyran-4-yl)-1,3-dimethyl-3-phenylurea]
IC50 [1, 5]: 12 µM
IL-1β OS of LPS [2]: 40 µM
MIC [3, 6]: > 64 µg/mL
IC50 [4, 5]: 8 µM

CC[C@H]1OC(=O)[C@H](C)[C@@H](O[C@H]2C[C@@](C)(OC)[C@](O)(CNCCC(C)C)[C@H](C)O2)[C@H](C)[C@@H](O[C@@H]2O[C@H](C)C[C@H](N(C)C(=O)N(C)c3ccccc3)[C@H]2O)[C@](C)(O)C[C@@H](C)CN[C@H](C)[C@@H](O)[C@]1(C)O [Example H-29, 1-((2S,3R,4S,6R)-2-(((2R,3S,4R,5R,8R,10R,11R,12S,13S,14R)-2-ethyl-3,4,10-trihydroxy-13-(((2R,4R,5S,6S)-5-hydroxy-5-((isopentylamino)methyl)-4-methoxy-4,6-dimethyltetrahydro-2H-pyran-2-yl)oxy)-3,5,8,10,12,14-hexamethyl-15-oxo-1-oxa-6-azacyclopentadecan-11-yl)oxy)-3-hydroxy-6-methyltetrahydro-2H-pyran-4-yl)-1,3-dimethyl-3-phenylurea]
IC50 [1, 5]: 50 µM
IL-1β OS of LPS [2]: 3 µM
MIC [3, 6]: > 64 µg/mL
IC50 [4, 5]: 50 µM

CCCNC[C@]1(O)[C@H](C)O[C@@H](O[C@H]2[C@H](C)[C@@H](O[C@@H]3O[C@H](C)C[C@H](N(CC(C)C)C(=O)N(C)c4ccccc4)[C@H]3O)[C@](C)(O)C[C@@H](C)CN[C@H](C)[C@@H](O)[C@](C)(O)[C@@H](CC)OC(=O)[C@@H]2C)C[C@@]1(C)OC [Example H-70, 1-((2S,3R,4S,6R)-2-(((2R,3S,4R,5R,8R,10R,11R,12S,13S,14R)-2-ethyl-3,4,10-trihydroxy-13-(((2R,4R,5S,6S)-5-hydroxy-4-methoxy-4,6-dimethyl-5-((propylamino)methyl)tetrahydro-2H-pyran-2-yl)oxy)-3,5,8,10,12,14-hexamethyl-15-oxo-1-oxa-6-azacyclopentadecan-11-yl)oxy)-3-hydroxy-6-methyltetrahydro-2H-pyran-4-yl)-1-isobutyl-3-methyl-3-phenylurea]
IC50 [1, 5]: 4 µM
IL-1β OS of LPS [2]: 6 µM
IC50 [4, 5]: 13 µM

CC[C@H]1OC(=O)[C@H](C)[C@@H](O[C@H]2C[C@@](C)(OC)[C@](O)(CN3CCN(C)CC3)[C@H](C)O2)[C@H](C)[C@@H](O[C@@H]2O[C@H](C)C[C@H](N(C)C(=O)Nc3ccc(N(C)C)cc3)[C@H]2O)[C@](C)(O)C[C@@H](C)CN[C@H](C)[C@@H](O)[C@]1(C)O [Example J-6, 3-(4-(dimethylamino)phenyl)-1-((2S,3R,4S,6R)-2-(((2R,3S,4R,5R,8R,10R,11R,12S,13S,14R)-2-ethyl-3,4,10-trihydroxy-13-(((2R,4R,5S,6S)-5-hydroxy-4-methoxy-4,6-dimethyl-5-((4-methylpiperazin-1-yl)methyl)tetrahydro-2H-pyran-2-yl)oxy)-3,5,8,10,12,14-hexamethyl-15-oxo-1-oxa-6-azacyclopentadecan-11-yl)oxy)-3-hydroxy-6-methyltetrahydro-2H-pyran-4-yl)-1-methylurea]
IC50 [1, 5]: > 500 µM
IL-1β OS of LPS [2]: >500 µM
IC50 [4, 5]: 225 µM

CC[C@H]1OC(=O)[C@H](C)[C@@H](O[C@H]2C[C@@](C)(OC)[C@](O)(CNCCCOC)[C@H](C)O2)[C@H](C)[C@@H](O[C@@H]2O[C@H](C)C[C@H](N(C)C(=O)N(C)c3ccccc3)[C@H]2O)[C@](C)(O)C[C@@H](C)CN[C@H](C)[C@@H](O)[C@]1(C)O [Example H-19, 1-((2S,3R,4S,6R)-2-(((2R,3S,4R,5R,8R,10R,11R,12S,13S,14R)-2-ethyl-3,4,10-trihydroxy-13-(((2R,4R,5S,6S)-5-hydroxy-4-methoxy-5-(((3-methoxypropyl)amino)methyl)-4,6-dimethyltetrahydro-2H-pyran-2-yl)oxy)-3,5,8,10,12,14-hexamethyl-15-oxo-1-oxa-6-azacyclopentadecan-11-yl)oxy)-3-hydroxy-6-methyltetrahydro-2H-pyran-4-yl)-1,3-dimethyl-3-phenylurea]
IC50 [1, 5]: 181 µM
IL-1β OS of LPS [2]: 100 µM
IC50 [4, 5]: 70 µM

CCCNC[C@]1(O)[C@H](C)O[C@@H](O[C@H]2[C@H](C)[C@@H](O[C@@H]3O[C@H](C)C[C@H](N(C)C(=O)N(C)c4cncnc4)[C@H]3O)[C@](C)(O)C[C@@H](C)CN[C@H](C)[C@@H](O)[C@](C)(O)[C@@H](CC)OC(=O)[C@@H]2C)C[C@@]1(C)OC [Example H-50, 1-((2S,3R,4S,6R)-2-(((2R,3S,4R,5R,8R,10R,11R,12S,13S,14R)-2-ethyl-3,4,10-trihydroxy-13-(((2R,4R,5S,6S)-5-hydroxy-4-methoxy-4,6-dimethyl-5-((propylamino)methyl)tetrahydro-2H-pyran-2-yl)oxy)-3,5,8,10,12,14-hexamethyl-15-oxo-1-oxa-6-azacyclopentadecan-11-yl)oxy)-3-hydroxy-6-methyltetrahydro-2H-pyran-4-yl)-1,3-dimethyl-3-(pyrimidin-5-yl)urea]
IC50 [1, 5]: > 250 µM
IL-1β OS of LPS [2]: >250 µM
IC50 [4, 5]: > 250 µM
